Assay results reported in US20240082296A1, “TREATMENT OF MUSCLE ATROPHY USING DEXTRAN SULFATE” (TX MEDIC AB, priority 2020, published 2024).
Marks after values point to notes of the source that are not given here.

Test system: severe traumatic brain injury (sTBI) in rats
Assay: HPLC of purine-pyrimidine / energy metabolites in rat brain after sTBI (Example 4)
Type: in vivo
Method: The effects of daily sub-cutaneous injections of dextran sulfate on glutamate excitotoxicity and mitochondrial function after severe traumatic brain injury (sTBI) in rats were evaluated by high-performance liquid chromatography (HPLC) analysis of frozen brain samples.
The experimental protocol used in this study was approved by the Ethical Committee of the Catholic University of Rome, according to international standards and guidelines for animal care. Male Wistar rats of 300-350 g body weight (b.w.) were fed with standard laboratory diet and water ad libitum in a controlled environment.
They were divided into three groups: • 1) n=6 animals subjected to sTBI, with drug administration after 30 minutes and sacrifice at 2 days post-TBI (Acute phase 1) • 2) n=6 animals subjected to severe-TBI, with drug administration after 30 minutes and sacrifice at 7 days post-TBI (Acute phase 2). • 3) n=6 animals subjected to severe-TBI, with drug administration after 3 days and sacrifice at 7 days post-TBI (Chronic phase).
As the anesthetic mixture, animals received 35 mg/kg b.w. ketamine and 0.25 mg/kg b.w. midazolam by i.p. injection. sTBI was induced by dropping a 450 g weight from 2 m height on to the rat head that had been protected by a metal disk previously fixed on the skull, according to the “weight drop” impact acceleration model (Marmarou et al., A new model of diffuse brain injury in rats. Part I: Pathophysiology and biomechanics. J Neurosurg. 1994; 80: 291-300). […] At the end of each period of treatment, rats were anesthetized again and then immediately sacrificed.
The drug treatment was a subcutaneous injection of 0.5 ml of dextran sulfate (Tikomed AB, Viken, Sweden, WO 2016/076780; 15 mg/kg) and administered according to the aforementioned schematic protocol.
An in vivo craniectomy was performed in all animals during anesthesia, after carefully removing the rat's skull, the brain was exposed and removed with a surgical spatula and quickly dropped in liquid nitrogen. After the wet weight (w.w.) determination, tissue preparation was affected as previously disclosed (Tavazzi et al., Cerebral oxidative stress and depression of energy metabolism correlate with severity of diffuse brain injury in rats. Neurosurgery. 2005; 56: 582-589; Vagnozzi et al., Temporal window of metabolic brain vulnerability to concussions: mitochondrial-related impairment-part I. Neurosurgery. 2007; 61: 379-388; Tavazzi et al., Temporal window of metabolic brain vulnerability to concussions: oxidative and nitrosative stresses-part II. Neurosurgery. 2007; 61: 390-395; Amorini et al., Severity of experimental traumatic brain injury modulates changes in concentrations of cerebral free amino acids. J Cell Mol Med. 2017; 21: 530-542.). Briefly, whole brain homogenization was performed with 7 ml of ice-cold, nitrogen-saturated, precipitating solution composed by CH3CN+10 mM KH2PO4, pH 7.40, (3:1; v:v), and using an Ultra-Turrax set at 24,000 rpm/min (Janke & Kunkel, Staufen, Germany). After centrifugation at 20,690×g, for 10 min at 4° C., the clear supernatants were saved, pellets were supplemented with 3 ml of the precipitating solution and homogenized again as described above. A second centrifugation was performed (20,690×g, for 10 min at 4° C.), pellets were saved, supernatants combined with those previously obtained, extracted by vigorous agitation with a double volume of HPLC-grade CHCl3 and centrifuged as above. The upper aqueous phases containing water-soluble low-molecular weight compounds were collected, subjected to chloroform washings for two more times (this procedure allowed the removal of all the organic solvent and of any lipid soluble compound from the buffered tissue extracts), adjusted in volumes with 10 mM KH2PO4, pH 7.40, to have ultimately aqueous 10% tissue homogenates and saved at −80° C. until assayed. […]

[1] = Acute phase 2 (15 mg/kg s.c. 30 min after sTBI, sacrifice 7 days post-TBI)
[2] = Chronic phase (15 mg/kg s.c. 3 days after sTBI, sacrifice 7 days post-TBI)
[3] = rat brain after sTBI, after administration

## dextran sulfate
[1]
  UDP-GalNac concentration: 19.90 ± 3.12^a,e nmol/g (w.w.)
  UDP-Glc concentration: 44.44 ± 7.59^j nmol/g (w.w.)
  UDP-GlcNac concentration: 130.65 ± 28.41^a nmol/g (w.w.)
  UMP concentration: 138.73 ± 32.01^b nmol/g (w.w.)
  UTP concentration: 146.71 ± 32.68^e nmol/g (w.w.)
  acetyl-CoA concentration: 36.86 ± 4.11^e nmol/g (w.w.)
  adenine concentration: 58.16 ± 6.36^a,f nmol/g (w.w.)
  ascorbic acid concentration: 3512.58 ± 224.62^a,e nmol/g (w.w.)
  creatinine concentration: 37.27 ± 5.82^a,e,j nmol/g (w.w.)
  cytidine concentration: 16.18 ± 4.21^e nmol/g (w.w.)
  cytosine concentration: 15.70 ± 4.10^f nmol/g (w.w.)
  guanine concentration: 4.73 ± 1.07 nmol/g (w.w.)
  guanosine concentration: 17.90 ± 3.24^j nmol/g (w.w.)
  hypoxanthine concentration: 12.90 ± 2.58^a,j nmol/g (w.w.)
  inosine concentration: 85.52 ± 20.36^e nmol/g (w.w.)
  malonyl-CoA concentration: 11.29 ± 2.27^b nmol/g (w.w.)
  orotic acid concentration: 13.34 ± 3.65^a nmol/g (w.w.)
  thymidine concentration: 0.49 ± 0.20^f nmol/g (w.w.)
  uracil concentration: 19.40 ± 7.52^a,e nmol/g (w.w.)
  uric acid concentration: 19.17 ± 2.15^a,h,i nmol/g (w.w.)
  uridine concentration: 63.02 ± 9.66^b,e nmol/g (w.w.)
  xanthine concentration: 10.41 ± 2.11^f nmol/g (w.w.)
  β-pseudouridine concentration: 13.26 ± 3.16^a,e,j nmol/g (w.w.)
[2]
  ADO concentration: 89.97 ± 12.98^a nmol/g (w.w.)
  ADP concentration: 315.53 ± 46.53^a nmol/g (w.w.)
  ADP-ribose concentration: 173.94 ± 8.45^a nmol/g (w.w.)
  AMP concentration: 90.01 ± 21.24^a nmol/g (w.w.)
  ATP concentration: 1381.03 ± 212.64^a nmol/g (w.w.)
  CDP choline concentration: 8.37 ± 2.19 nmol/g (w.w.)
  CDP concentration: 23.55 ± 6.45^a nmol/g (w.w.)
  CMP concentration: 20.51 ± 3.73^a,f nmol/g (w.w.)
  CTP concentration: 25.23 ± 2.93^a,f nmol/g (w.w.)
  CoA-SH concentration: 27.58 ± 6.24^f nmol/g (w.w.)
  GDP concentration: 173.05 ± 28.68^a,e nmol/g (w.w.)
  GDP glucose concentration: 43.85 ± 5.06^b nmol/g (w.w.)
  GMP concentration: 148.56 ± 31.21^a nmol/g (w.w.)
  GSH concentration: 2608.67 ± 358.07^a,e nmol/g (w.w.)
  GSSG concentration: 231.08 ± 44.34^b,f nmol/g (w.w.)
  GTP concentration: 290.92 ± 34.68^a,f nmol/g (w.w.)
  IMP concentration: 99.29 ± 13.82^a nmol/g (w.w.)
  MDA concentration: 11.62 ± 3.90^a,e nmol/g (w.w.)
  NAA concentration: 6375.36 ± 974.12^a,e nmol/g (w.w.)
  NADH concentration: 11.78 ± 3.32^e nmol/g (w.w.)
  NADPH concentration: 7.34 ± 2.65^f nmol/g (w.w.)
  NADP^+ concentration: 16.44 ± 2.66^a,f nmol/g (w.w.)
  NAD^+ concentration: 301.13 ± 29.90^a nmol/g (w.w.)
  NO2 concentration: 217.67 ± 55.04^a nmol/g (w.w.)
  NO3 concentration: 241.27 ± 18.84^e nmol/g (w.w.)
  UDP concentration: 57.40 ± 5.88^a,f nmol/g (w.w.)
  UDP-Gal concentration: 122.29 ± 12.15 nmol/g (w.w.)
  UDP-GalNac concentration: 21.84 ± 2.80^a,e nmol/g (w.w.)
  UDP-Glc concentration: 35.79 ± 3.45^b nmol/g (w.w.)
  UDP-GlcNac concentration: 129.42 ± 15.88^b nmol/g (w.w.)
  UMP concentration: 103.11 ± 29.79 nmol/g (w.w.)
  UTP concentration: 136.80 ± 33.25^f nmol/g (w.w.)
  acetyl-CoA concentration: 35.68 ± 6.55^e nmol/g (w.w.)
  adenine concentration: 52.94 ± 8.59^a,f nmol/g (w.w.)
  ascorbic acid concentration: 3375.03 ± 856.41^a,e nmol/g (w.w.)
  creatinine concentration: 51.25 ± 10.17^a,f nmol/g (w.w.)
  cytidine concentration: 14.71 ± 2.83^e nmol/g (w.w.)
  cytosine concentration: 15.58 ± 2.50^b,f nmol/g (w.w.)
  guanine concentration: 5.31 ± 1.04^b nmol/g (w.w.)
  guanosine concentration: 28.87 ± 7.60^a,f nmol/g (w.w.)
  hypoxanthine concentration: 17.97 ± 4.49^a nmol/g (w.w.)
  inosine concentration: 105.81 ± 25.57^f nmol/g (w.w.)
  malonyl-CoA concentration: 10.00 ± 1.95^b nmol/g (w.w.)
  orotic acid concentration: 12.05 ± 1.50^a nmol/g (w.w.)
  thymidine concentration: 0.71 ± 0.11 nmol/g (w.w.)
  uracil concentration: 16.57 ± 2.99^a,f nmol/g (w.w.)
  uric acid concentration: 27.77 ± 3.60^a nmol/g (w.w.)
  uridine concentration: 63.28 ± 3.37^f nmol/g (w.w.)
  xanthine concentration: 9.35 ± 0.83^f nmol/g (w.w.)
  β-pseudouridine concentration: 18.62 ± 2.80^a nmol/g (w.w.)
Both the acute and chronic phases of sTBI
  cerebral nitrate concentrations: significantly decreased
[3]
  cerebral GSH level: significant improvement
  cerebral MDA levels: significant reduction
  cerebral NAA and its substrates: significant improvements
  cerebral ascorbic acid level: significant improvement
